Source: ChEMBL document CHEMBL1641378, “Understanding DP receptor antagonism using a CoMSIA approach” (Bioorg Med Chem Lett, 2011)

Molecular target: T1, Prostaglandin D2 receptor (Homo sapiens, UniProt Q13258)
T1 sequence (Q13258 whole entry): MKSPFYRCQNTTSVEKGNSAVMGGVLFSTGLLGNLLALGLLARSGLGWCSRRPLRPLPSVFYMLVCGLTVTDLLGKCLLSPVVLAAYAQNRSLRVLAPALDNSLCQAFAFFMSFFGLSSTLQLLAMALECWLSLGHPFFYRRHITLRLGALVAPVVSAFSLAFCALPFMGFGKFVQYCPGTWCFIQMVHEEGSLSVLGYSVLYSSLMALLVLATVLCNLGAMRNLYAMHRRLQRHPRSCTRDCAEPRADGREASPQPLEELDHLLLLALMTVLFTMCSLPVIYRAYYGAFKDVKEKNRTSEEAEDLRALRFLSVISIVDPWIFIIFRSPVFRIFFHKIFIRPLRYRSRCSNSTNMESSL
Experiment: Antagonist activity at prostaglandin D2 receptor in human LS174T cells assessed as inhibition of PGD2-induced cAMP accumulation after 15 mins by scintillation proximity assay
Assay type: functional, cell-based

COc1ccc(CCNc2cc(-c3ccc(F)c(/C=N/O)c3)nc(OC)n2)cc1
IC50: 4.47 nM
